Reference: patent US9345682B2, “Inhibition of STAT3 signal transduction for human cancer therapy” (University of South Florida, priority 1999, dated 2016)

Key:
STAT3 [1] = assay: EMSA of constitutive STAT3 DNA-binding activity in MDA-MB-468 breast carcinoma cells; assay type: cell-based, human; settings: MDA-MB-468 cells; dose-dependent
Procedure: (§1) FIG. 6: Src and JAK Inhibitors Block Growth and STAT3 Activation in Breast Carcinoma Cells. MDA-MD-468 cells are treated with inhibitors of EGF receptor (PD158780), Src (PD180970), or JAKs (AG490), and effects on cell growth (Panel A) and STAT3 DNA-binding activity (Panel B) are determined.
STAT DNA-binding activity in human breast cancer cell lines is examined by electrophoretic mobility shift assays (EMSA) (Garcia et al., 1997, Cell Growth Diff. 8:1267-1276). In these experiments, EMSAs are performed using the ^32P-labeled sis-inducible element (SIE) as a probe to detect STAT DNA-binding activity in nuclear extracts of cells. This synthetic DNA oligonucleotide probe is a high-affinity mutant of the c-fos SIE, called hSIE, that binds both STAT1 and STAT3 (Yu, et al., 1995, Science 269:81-83). […] This activation is constitutive and occurs in the absence of exogenous EGF stimulation. By contrast, STAT3 activation is not detected in any of the three cell lines derived from normal breast tissue.
(§2) The involvement of these, and other, tyrosine kinases in STAT3 activation is tested using specific inhibitors of JAK family kinases, and the EGF receptor and Src family kinases.

MDA-MB-468 cells = assay: Cell growth of MDA-MB-468 breast carcinoma cells; assay type: cell-based, human
Procedure: as §1, §2

STAT3 [2] = assay: EMSA (SIE probe) of constitutive STAT3 DNA-binding in U266 myeloma cells; assay type: cell-based, human; settings: 50 mM AG490, within 16 to 24 hours
Procedure: U266 and RPMI 8226 cell lines are originally obtained from ATCC and maintained in RPMI 1640 medium supplemented with 10% fetal calf serum (FCS). For detection of STATs in primary bone marrow (BM) cells, BM aspirates are diluted 1:2 in phosphate-buffered saline (PBS) and mononuclear cells are separated by the standard Ficoll-Hypaque (Pharmacia LKB Biotechnology) sedimentation procedure. Mononuclear cells are washed twice with PBS, and nuclear extracts are prepared as described below. For inhibitor studies, a minimum of 10^7 U266 cells are treated with 1 mg/ml Sant7 or with […] AG490 (Meydan, et al., 1996, Nature 379:645-648). NIH 3T3 cells overexpressing the human EGF receptor have been described (Garcia, et al., 1997, Immunity 5:449-460).
Nuclear extracts are prepared as previously described. Briefly, nuclei are isolated and extracted in hypertonic buffer (20 mM HEPES, pH 7.9, 420 mM NaCl, 1 mM EDTA, 1 mM EGTA, 20% glycerol, 20 mM NaF, 1 mM Na3VO4, 1 mM Na2P4O7, 1 mM DTT, 0.5 mM PMSF, 0.1 mM aprotinin, 1 mM leupeptin, and 1 mM antipain). […] Protein-DNA complexes are resolved on 5% non-denaturing polyacrylamide gels and analyzed by autoradiography. […]

[3] = test system: Bcl-xL overexpressing U266 cells; assay: Drug-induced apoptosis in U266 cells overexpressing Bcl-xL; assay type: cell-based, human; settings: stable U266 clones overexpressing Bcl-xL; 24 h for melphalan and mitoxantrone
Procedure: FIG. 23 Enforced Overexpression of Bcl-x Confers Resistance to Chemotherapy. Panel A: U266 cells are transfected with a CMV expression vector encoding Bcl-x, tagged with the FLAG epitope. Several stable, independent clones overexpressing Bcl-xL, as well as empty vector controls (Neo), are isolated and analyzed by Western blot with antibodies to Bcl-xL, or the FLAG epitope tag. B: The indicated cell lines are incubated with either melphalan (LPAM) or mitoxantrone for 24 h, and apoptosis is monitored by AnnexinV-FITC staining and flow cytometry. Overexpression of Bcl-xL protects the cells from chemotherapy-induced apoptosis.
These Bcl-xL overexpressing cells are resistant to apoptosis induced by AG490, as predicted since the ectopic Bcl-xL is expressed from a CMV promoter and is thus independent of JAK-STAT signaling. […] These findings support one embodiment of the present invention, that Bcl-x confers resistance to chemotherapy-induced apoptosis, and therefore that inhibition of STAT3 signaling promotes chemotherapy-induced apoptosis.

splenocytes = assay: IL-12-induced IFN-g production by splenocytes ex vivo; assay type: in vivo; settings: mice treated i.p. with AG-490 (0.5 mg) daily 4 days, rIL-12 last two days
Procedure: Mice are treated daily with i.p. injections of […] of AG-490 (0.5 mg) or DMSO vehicle (50%) for a total of 4 days. During the last two days of AG-490 or DMSO treatment, daily i.p. injection of 400 ng of recombinant IL-12 (rIL-12) (Genetics Institute, Cambridge, Mass.) is also given simultaneously with either AG-490 or DMSO. Two days after the last treatment of AG-490, single cell suspensions of splenocytes are prepared from individual mice. The splenocytes are treated with 100 U/ml rIL-2 to induce IFN-g production. IFN-g ELISA (Genzyme, Cambridge, Mass.) is performed as described previously (Tan, et al., 1996, Cancer Res 56:3399).

peritoneal macrophages = assay: IL-12-mediated nitric oxide production by macrophages treated in vitro; assay type: cell-based, mice; settings: in vitro treatment of macrophages, 50 mM AG-490
Procedure: Nitric oxide production. Peritoneal macrophages (2×10^5/0.2 ml/well) from mice with various treatments are incubated 48 hours. Nitrite accumulation in macrophage supernatants were determined using Griess reagent.
In vitro IL-12 activation and AG-490 treatment of macrophages. Peritoneal macrophages (2×10^5/well) are incubated in medium supplemented with either PBS, or rIL-12 (2 ng/ml), or AG-490 ([…]). Forty-eight hours later, the cultures are renewed by addition of fresh medium with either AG-490 or rIL-12 or PBS. Activation of macrophages is determined by nitric oxide production. Macrophage viability is determined by cleavage of tetrazolium salt in an MTT assay.

N#C/C(=C\c1ccc(O)c(O)c1)C(=O)NCc1ccccc1 [AG490]
constitutive STAT3 activation (STAT3 DNA-binding activity) (STAT3 [1]): effectively blocked | cell growth (MDA-MB-468 cells): inhibition of cell growth | constitutive STAT3 DNA-binding activity (STAT3 [2]): complete abrogation | apoptosis induced in Bcl-xL overexpressing cells [3]: resistant | IL-12-induced IFN-g production by splenocytes (splenocytes): slight suppression | IL-12-mediated nitric oxide production (peritoneal macrophages): prevents or suppressed
